Laboratory results from patent US7034159B2, “Pharmaceutical compositions comprising 1-isopropyl-3-[(4-m-toluidino-3-pyridyl)sulphonyl]-urea as active ingredient” (Cosma S.p.A., priority 2002, dated 2006).
Where two headings read alike, the source gives them in different places.

Legend:
[1] = Kondo et al. 1994, susceptibility to humidity/water, cited from earlier work
[2] = Accelerated ICH stability test with pure solid form II, polymorphic transformation followed by FT-IR in KBr; assay type: physicochemical; details: 40°±2C and 75±5% relative humidity, over 6 months
Source text: For detectable polymorphic transformations is intended transformations visible from changes of the FT-IR spectrum of form II of torsemide registered in KBr. Specifically, the formation of a contamination of 1% or greater (by weight) of form I of torsemide in a sample of pure form II of torsemide would be a detectable polymorphic transformation by means of the relative change of the FT-IR spectrum registered in KBr which would imply the appearance of a peak in the position at 1697 cm^−1. Accelerated Test with Pure Solid Form II at 40°±2C and 75±5% of Relative Humidity. This type of test which is prescribed according to ICH (Q1A, “Stability testing of new Drug Substances and new Drug Products”, 1st edition Oct. 27, 1997 and 2nd edition Nov. 8, 2000) allows, according to internationally recognised procedures, to extrapolate the results obtained with this accelerated test to a mock storage period at room temperature for over 2 years. The inventors of the present patent application have subjected a series of pure samples of form II of torsemide to this test, and have assayed with the frequency and to the prescribed terms, the possible polymorphic transformations of the samples through registration of the FT-IR spectra in KBr on a Jasco apparatus.

[3] = Prolonged ICH stability test with pure solid form II, polymorphic transformation followed by FT-IR in KBr; assay type: physicochemical; details: 25°±2C and 60±5% relative humidity, after 13 months
Protocol: Prolonged Test with Pure Solid Form II at 25°±2C and 60±5% of Relative Humidity. This type of test which is prescribed according to ICH (Q1A, “Stability testing of new Drug Substances and new Drug Products”, 1st edition Oct. 27, 1997 and 2nd edition Nov. 8, 2000) follows possible degradation of the samples under more mild conditions, but over prolonged periods. The inventors of the present patent application have subjected a series of pure samples of form II of torsemide to this test, and have assayed with the frequency and to the prescribed terms, the possible polymorphic transformations of the samples through the registration of the FT-IR spectra in KBr on the Jasco apparatus.

[4] = Drastic test with pure solid form II at 80° C. for two days in the absence of light; assay type: physicochemical
Protocol: Drastic Test with Pure Solid Form II at 80° C. for Two Days (Carried Out in the Absence of Light).

[5] = Transformation of form II suspended in water (strong heating or prolonged treatment); assay type: physicochemical; details: suspended in water and strongly heated, or suspended in water and subjected to prolonged treatment
Source text: 27, 1997 and 2nd edition Nov. 8, 2000) and recognised on the world scale for the evaluation of the stability of pharmaceutical substances.
Form I of torsemide is obtainable from form II of torsemide as above according to the instructions of Kondo, namely by suspension of an aliquot of form II in water (approx. 23 parts by weight) and subsequent stirring for 20 days at room temperature. The melting point of form I of torsemide, used by the inventors of the present patent application, measured with a Büchi B-540 according to USP class 1a (temperature increments of 1° C.±0.5° C./min starting from 10° C. from the expected melting point, inserting the sample at 5° C. from the melting point, then 1° C.±0.5° C./min until reaching the melting point), is 160.1°–160.5° C.

Compound | relative stability of the polymorphic form [1] | polymorphic transformation (FT-IR in KBr, Jasco) [2] | polymorphic transformation (FT-IR in KBr, Jasco) [3] | polymorphic transformation [4] | polymorphic transformation in aqueous suspension [5] | relative stability of the polymorphic form ([1]; listed as form II)
Cc1cccc(Nc2ccncc2S(=O)(=O)NC(=O)NC(C)C)c1 [form I, 1-isopropyl-3-[(4-m-toluidino-3-pyridyl)sulphonyl]-urea] | sufficiently stable | – | – | – | – | –
Cc1cccc(Nc2ccncc2S(=O)(=O)NC(=O)NC(C)C)c1 [form II of torsemide, 1-isopropyl-3-[(4-m-toluidino-3-pyridyl)sulphonyl]-urea] | – | no detectable polymorphic transformation | could not see any detectable polymorphic transformation | does not show a detectable polymorphic transformation | transforms into form I | poorly stable
